Reference: the supplement of paper PMC10307832

Legend:
Experiment in all cases: relative viability (nuclei count vs DMSO), 5 days (fraction); higher = more cells survive
[1] = compound: CC1=C(N=C(N=C1N)[C@H](CC(=O)N)NC[C@@H](C(=O)N)N)C(=O)N[C@@H]([C@H](C2=CN=CN2)OC3C(C(C(C(O3)CO)O)O)OC4C(C(C(C(O4)CO)O)OC(=O)N)O)C(=O)N[C@H](C)[C@H]([C@H](C)C(=O)N[C@@H]([C@@H](C)O)C(=O)NCCC5=NC(=CS5)C6=NC(=CS6)C(=O)NCCC[S+](C)C)O [Bleomycin] + CC(=O)c1c(C)c2cnc(Nc3ccc(N4CCNCC4)cn3)nc2n(C2CCCC2)c1=O [Palbociclib] (partner 0.5 µM); settings: main component drawn
Procedure, shortened: (§1)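 Nuclei were stained with Hoechst during a one-step fixation (final 0.05% Triton X-100, 1% formaldehyde, 1 ug/ml Hoechst) carried out 5 days after dosing, then counted on 4× images. The cells, lung cancer lines in 1536-well plates, had been dosed by pin tool the day after seeding with one drug alone or a fixed anchor-drug dose plus five library-drug doses (not always all listed) in √10 steps. Relative viability is the nuclei count in treated wells divided by that in vehicle wells, and each value is the median of duplicate plates.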

[2] = compound: COc1cc([C@@H]2c3cc4c(cc3[C@@H](O[C@@H]3O[C@@H]5CO[C@@H](C)O[C@H]5[C@H](O)[C@H]3O)[C@H]3COC(=O)[C@H]23)OCO4)cc(OC)c1O [Etoposide] + Nc1nc2[nH]cc(CCc3ccc(C(=O)N[C@@H](CCC(=O)O)C(=O)O)cc3)c2c(=O)[nH]1 [Pemetrexed] (partner 0.2 µM)
Procedure, shortened: as §1

[3] = compound: CC1=C(N=C(N=C1N)[C@H](CC(=O)N)NC[C@@H](C(=O)N)N)C(=O)N[C@@H]([C@H](C2=CN=CN2)OC3C(C(C(C(O3)CO)O)O)OC4C(C(C(C(O4)CO)O)OC(=O)N)O)C(=O)N[C@H](C)[C@H]([C@H](C)C(=O)N[C@@H]([C@@H](C)O)C(=O)NCCC5=NC(=CS5)C6=NC(=CS6)C(=O)NCCC[S+](C)C)O [Bleomycin] + Cc1nc(NC(=O)N2CCC[C@H]2C(N)=O)sc1-c1ccnc(C(C)(C)C(F)(F)F)c1 [Alpelisib] (partner 2 µM); settings: main component drawn
Procedure, shortened: as §1

[4] = compound: COc1cc([C@@H]2c3cc4c(cc3[C@@H](O[C@@H]3O[C@@H]5CO[C@@H](C)O[C@H]5[C@H](O)[C@H]3O)[C@H]3COC(=O)[C@H]23)OCO4)cc(OC)c1O [Etoposide] + CS(=O)(=O)N1CCN(Cc2cc3nc(-c4cccc5[nH]ncc45)nc(N4CCOCC4)c3s2)CC1 [Pictilisib] (partner 1 µM)
Procedure, shortened: as §1

Cell Line	relative viability ([1]; first compound 0.01 µM)	relative viability ([1]; first compound 0.03162 µM)	relative viability ([1]; first compound 0.1 µM)	relative viability ([1]; first compound 0.3162 µM)	relative viability ([1]; first compound 1 µM)	relative viability ([2]; first compound 0.01 µM)	relative viability ([2]; first compound 0.03162 µM)	relative viability ([2]; first compound 0.1 µM)	relative viability ([2]; first compound 0.3162 µM)	relative viability ([2]; first compound 1 µM)	relative viability ([3]; first compound 0.01 µM)	relative viability ([3]; first compound 0.03162 µM)	relative viability ([3]; first compound 0.1 µM)	relative viability ([3]; first compound 0.3162 µM)	relative viability ([3]; first compound 1 µM)	relative viability ([4]; first compound 0.01 µM)	relative viability ([4]; first compound 0.03162 µM)	relative viability ([4]; first compound 0.1 µM)	relative viability ([4]; first compound 0.3162 µM)	relative viability ([4]; first compound 1 µM)
NCI-H2342	0.553	0.546	0.519	0.488	0.433	0.861	0.866	0.472	0.421	0.291	–	–	–	–	–	–	–	–	–	–
SK-MES-1	0.313	0.306	0.329	0.254	0.204	0.912	1.02	0.844	0.708	0.256	0.731	0.531	0.59	0.315	0.185	0.361	0.336	0.301	0.242	0.167
NCI-H2087	0.222	0.236	0.221	0.118	0.147	0.641	0.723	0.703	0.582	0.374	0.865	0.924	0.795	0.196	0.165	–	1.09	0.551	0.543	0.235
HCC-366	0.19	0.155	0.106	0.0548	0.0409	0.174	0.182	0.272	0.157	0.0669	0.345	0.253	0.212	0.042	0.035	0.198	0.188	0.0748	0.0491	0.0362
201T	0.397	0.32	0.384	0.311	0.336	0.325	0.343	0.355	0.318	0.32	0.956	0.949	0.96	0.862	0.753	0.677	0.767	0.652	0.63	0.445
HCC-827	0.46	–	0.611	0.243	0.18	0.262	0.266	0.127	0.236	0.192	0.925	1	0.852	0.599	0.233	1.03	0.878	0.564	0.479	0.366
NCI-H650	0.282	0.34	0.307	0.255	0.2	0.901	1.01	0.608	0.673	0.347	0.948	1.03	0.827	0.456	0.312	0.865	0.843	0.415	0.362	0.221
NCI-H2023	0.333	0.302	0.25	0.125	0.13	0.241	0.272	0.182	0.156	0.143	0.403	0.536	0.325	0.149	0.101	0.225	0.255	0.145	0.124	0.0878
NCI-H596	–	–	–	–	–	0.463	0.539	0.488	0.546	0.477	0.377	0.686	0.395	0.259	0.269	0.398	0.427	–	0.375	0.36
SK-LU-1	0.356	0.461	0.35	0.312	0.332	0.991	0.863	0.817	0.363	0.282	0.889	0.735	0.902	0.502	0.412	0.603	0.597	0.308	0.277	0.174
A-427	0.458	0.453	0.447	0.276	0.256	0.999	1.06	0.778	0.607	0.305	0.983	1.05	1.05	0.48	0.203	0.726	0.817	0.507	0.469	0.169
NCI-H460	0.0989	0.126	0.0546	0.0357	0.0284	0.0661	0.0549	0.061	0.0772	0.0604	0.294	0.243	0.136	0.0356	0.017	0.393	0.434	0.151	0.076	0.0793
NCI-H1703	–	–	–	–	–	–	–	–	–	–	0.32	0.295	0.278	0.173	0.196	0.234	0.313	0.269	0.214	0.171
NCI-H1792	0.613	0.624	0.592	0.482	0.362	0.743	0.768	–	0.616	0.229	0.631	0.61	0.623	0.228	0.221	0.261	0.261	0.129	0.216	0.147
Calu-6	–	–	–	–	–	–	–	–	–	–	0.63	0.603	0.333	0.181	0.177	0.841	0.908	0.764	0.457	0.25
SW 1573	0.277	0.3	0.265	0.144	0.167	0.877	0.785	0.397	0.259	0.148	0.643	0.64	0.596	0.302	0.342	0.451	0.475	0.338	0.197	0.117
RERF-LC-KJ	0.678	0.537	0.444	0.185	0.18	0.454	0.507	0.48	0.434	0.445	0.58	0.589	0.53	0.253	0.266	0.533	0.586	0.459	0.529	0.365
EMC-BAC-2	0.378	0.433	0.414	0.333	0.293	0.442	0.466	0.476	0.37	0.284	0.647	0.643	0.653	0.355	0.232	0.511	0.515	0.413	0.27	0.164

Cell Line	relative viability ([1]; first compound 0.01 µM)	relative viability ([1]; first compound 0.03162 µM)	relative viability ([1]; first compound 0.1 µM)	relative viability ([1]; first compound 0.3162 µM)	relative viability ([1]; first compound 1 µM)	relative viability ([2]; first compound 0.01 µM)	relative viability ([2]; first compound 0.03162 µM)	relative viability ([2]; first compound 0.1 µM)	relative viability ([2]; first compound 0.3162 µM)	relative viability ([2]; first compound 1 µM)	relative viability ([3]; first compound 0.01 µM)	relative viability ([3]; first compound 0.03162 µM)	relative viability ([3]; first compound 0.1 µM)	relative viability ([3]; first compound 0.3162 µM)	relative viability ([3]; first compound 1 µM)	relative viability ([4]; first compound 0.01 µM)	relative viability ([4]; first compound 0.03162 µM)	relative viability ([4]; first compound 0.1 µM)	relative viability ([4]; first compound 0.3162 µM)	relative viability ([4]; first compound 1 µM)
LK-2	0.45	0.299	0.418	0.15	0.134	0.36	0.315	0.208	0.224	0.186	0.579	0.505	0.478	0.282	0.251	0.573	0.572	0.407	0.476	0.26
NCI-H2228	0.719	0.683	0.465	0.411	0.226	0.375	0.358	0.355	0.299	0.181	0.905	0.959	0.696	0.341	0.376	0.351	0.411	0.167	0.229	0.109
NCI-H322M	0.472	0.562	0.484	0.428	0.491	0.604	0.603	0.625	0.587	0.524	0.738	0.84	0.81	0.859	0.559	0.504	0.566	0.397	0.493	0.384
NCI-H1975	0.377	0.398	0.397	0.226	0.178	0.285	0.303	0.31	0.268	0.223	0.607	0.616	0.555	0.254	0.232	0.304	0.328	0.225	0.276	0.168
NCI-H1944	0.228	0.188	0.218	0.156	0.13	0.591	0.797	0.396	0.44	0.189	0.627	0.518	0.506	0.288	0.179	0.362	0.39	0.27	0.294	0.222
NCI-H1299	–	–	–	–	–	–	–	–	–	–	0.978	1.03	0.923	0.529	0.416	0.777	0.672	0.641	0.644	0.332
ABC-1	0.467	0.822	0.789	0.512	0.433	–	–	–	–	–	0.883	1.03	0.615	0.425	0.298	0.765	0.711	0.386	0.345	0.228
NCI-H1650	0.215	0.222	0.153	0.176	0.191	0.354	0.376	0.388	0.239	0.223	–	–	–	–	–	0.506	0.572	0.378	0.196	0.139
ChaGo-K-1	0.847	0.831	0.862	0.512	0.386	0.267	0.261	0.259	0.261	0.218	–	–	–	–	–	0.815	0.616	0.387	0.265	0.199
NCI-H1648	0.217	0.32	0.27	0.27	0.245	–	0.859	0.732	0.798	0.581	–	–	–	–	–	–	–	–	–	–
NCI-H727	0.346	0.721	0.654	0.526	0.636	–	–	–	–	–	0.499	0.529	0.491	0.293	0.308	0.327	0.469	0.215	0.444	0.35
NCI-H1563	–	–	–	–	–	0.693	0.806	0.547	0.425	0.371	0.831	0.707	0.678	0.613	0.572	0.661	0.653	0.61	0.501	0.555
A549	–	–	–	–	–	–	–	–	–	–	0.593	0.44	0.314	0.0966	0.0714	0.49	0.432	0.221	0.0914	0.0659
NCI-H522	0.904	0.829	0.76	0.386	0.4	0.896	1.22	0.784	0.877	1	–	–	–	–	–	–	–	–	–	–
SW 900	0.502	0.503	0.355	0.214	0.222	0.419	0.543	0.522	0.47	0.204	–	–	–	–	–	–	–	–	–	–
IA-LM	–	–	–	–	–	–	–	–	–	–	0.514	0.614	0.565	0.372	0.246	0.398	0.31	0.236	0.282	0.138
EBC-1	–	–	–	–	–	–	–	–	–	–	0.777	0.718	0.696	0.501	0.404	0.362	0.384	0.218	0.287	0.156
